Measured values from patent EP1226131B1, “ISOXAZOLECARBOXAMIDE DERIVATIVES” (RECORDATI INDUSTRIA CHIMICA E FARMACEUTICA S.p.a., priority 1999, dated 2001).

Tests used:
α1L adrenoceptor = assay: Functional antagonism of noradrenaline-induced contractions of rabbit aorta pretreated with chloroethylclonidine; format: biochemical; details: functional affinity, NA-induced contractions
Procedure: Adult male New Zealand rabbits were sacrificed by cervical dislocation. The aorta was removed, placed in Krebs-Henseleit buffer and dissected free of adhering tissue.
Each antagonist concentration was tested using 2-3 aortic rings from different rabbits.
Dose ratios (i.e., the ratio between the concentrations of noradrenaline required to produce half-maximal response in the presence and in the absence of the test antagonist) were calculated at each concentration of the compounds.

α1a adrenergic receptor = target: T1, α1a adrenergic receptor (Homo sapiens, UniProt P35348); assay: Radioligand binding assay ([3H]prazosin) on cloned α1-adrenoceptor subtype, membranes of transfected cells
T1 sequence (P35348 1-466): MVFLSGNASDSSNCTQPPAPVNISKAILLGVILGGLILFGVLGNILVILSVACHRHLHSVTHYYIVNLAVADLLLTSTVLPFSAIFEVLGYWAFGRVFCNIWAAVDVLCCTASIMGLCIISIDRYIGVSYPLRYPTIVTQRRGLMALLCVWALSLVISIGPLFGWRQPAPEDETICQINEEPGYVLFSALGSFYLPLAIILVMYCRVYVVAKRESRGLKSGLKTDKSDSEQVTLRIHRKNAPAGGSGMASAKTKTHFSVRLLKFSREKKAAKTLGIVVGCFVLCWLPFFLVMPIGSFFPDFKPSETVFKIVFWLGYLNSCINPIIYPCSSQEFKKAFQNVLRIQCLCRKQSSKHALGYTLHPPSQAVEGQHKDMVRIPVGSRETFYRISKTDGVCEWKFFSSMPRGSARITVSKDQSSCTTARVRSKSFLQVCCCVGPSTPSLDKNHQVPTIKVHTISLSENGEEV
Procedure: (§1) Determination of affinity for cloned subtypes of the cloned α1-adrenoceptor was performed in membranes from cells transfected by electroporation with DNA expressing the genes encoding each α1-adrenoceptor subtype.
(§2) Non-specific binding was determined in the presence of 10 µM phentolamine. Incubation was stopped by addition of ice-cold Tris buffer and rapid filtration through 0.2%-polyethyleneimine pretreated Schleicher & Schuell GF52 filters. […] The homogenates were centrifuged at 40000 × g × 20 minutes and the membranes were resuspended in a small volume of ice-cold buffer containing Tris 5 mM and EDTA 5 mM (pH 7.4) and immediately frozen and stored at -70°C until use.
Data were expressed as mean of Ki.

[1] = tested on: urethral contractions (UP) induced by hypogastric-nerve stimulation (HYP); assay: Urethral contractions induced by hypogastric-nerve stimulation in anaesthetised dogs, i.v. administration; format: in vivo; details: Canis lupus familiaris, iv, dog, dose inhibiting by 50% urethral contractions induced by hypogastric-nerve stimulation, read-out: UP ID50 HYP
Procedure: The experiments were performed according to the method of Imagawa J. et al., J Pharmacol. Methods 22, 103-111 (1989), with substantial modifications, as follows: adult male beagle dogs, weighing 8-10 kg, were anaesthetised with pentobarbital sodium (30 mg/kg i.v. and 2 mg/kg/h i.v.), intubated and spontaneously ventilated with room air. In order to monitor systemic blood pressure (BP), a polyethylene (PE) catheter was introduced into the aortic arch through the left femoral artery. A collateral of the left femoral vein was cannulated for infusion of anaesthetic, and the right femoral vein was cannulated for administration of the compounds. For intraarterial (i.a.) injection of noradrenaline (NA), a PE catheter was introduced into the lower portion of the abdominal aorta via the right external iliac artery. Through such procedure, NA was selectively distributed to the lower urinary tract. A paramedian vertical suprapubic incision extending from the base of the pelvis to the mid-abdominal region was made and the bladder and the prostate were exposed. The bladder was manually emptied with a syringe. […] The distal end of the right or left branch of the nerve was placed on a bipolar platinum electrode. Prostatic urethral pressure was monitored with a Mikro-tip cathe[…]) introduced into the bladder via the external urethral meatus, and withdrawn until the pressure transducer was positioned in the prostatic region of the urethra. A ligature was secured between the neck of the bladder and urethra to isolate the response of the latter and to avoid any interaction with the bladder. Another ligature was put around the Mikro-tip catheter at the external meatus, to secure the catheter itself. […] Both i.a. injections of NA and stimulations of the hypogastric nerve were repeated 5 minutes after every dosing of test compound with intervals of about 5 minutes between two stimulations. […]

[2] = target: T2, recombinant α1d-adrenoceptor (Homo sapiens, UniProt P25100); assay: Radioligand binding assay ([3H]prazosin) on cloned α1-adrenoceptor subtype, membranes of transfected cells
T2 sequence (P25100 1-572): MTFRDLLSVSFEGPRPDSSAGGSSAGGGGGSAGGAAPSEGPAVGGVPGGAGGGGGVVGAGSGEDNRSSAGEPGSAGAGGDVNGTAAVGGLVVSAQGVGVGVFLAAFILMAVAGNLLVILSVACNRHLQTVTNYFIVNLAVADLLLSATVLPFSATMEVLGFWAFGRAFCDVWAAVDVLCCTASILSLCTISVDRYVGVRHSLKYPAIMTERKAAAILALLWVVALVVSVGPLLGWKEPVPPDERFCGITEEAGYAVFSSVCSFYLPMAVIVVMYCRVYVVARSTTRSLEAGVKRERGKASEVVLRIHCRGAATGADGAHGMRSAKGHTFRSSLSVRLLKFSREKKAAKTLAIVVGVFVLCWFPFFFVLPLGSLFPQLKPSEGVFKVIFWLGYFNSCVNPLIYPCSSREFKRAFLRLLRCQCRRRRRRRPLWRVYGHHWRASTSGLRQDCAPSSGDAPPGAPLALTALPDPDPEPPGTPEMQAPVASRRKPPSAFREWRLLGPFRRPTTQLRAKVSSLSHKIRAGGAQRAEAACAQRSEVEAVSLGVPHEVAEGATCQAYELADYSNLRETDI
Procedure: as §1, §2
Data were expressed as mean of Ki.

[3] = tested on: diastolic blood pressure (DBP); assay: Effect on diastolic blood pressure in anaesthetised dogs, i.v. administration; format: in vivo; details: dog, dose inducing a 25% decrease in diastolic blood pressure, one value spanning c3 and c4
Procedure: The experiments were performed according to the method of Imagawa J. et al., J Pharmacol. Methods 22, 103-111 (1989), with substantial modifications, as follows: adult male beagle dogs, weighing 8-10 kg, were anaesthetised with pentobarbital sodium (30 mg/kg i.v. and 2 mg/kg/h i.v.), intubated and spontaneously ventilated with room air. In order to monitor systemic blood pressure (BP), a polyethylene (PE) catheter was introduced into the aortic arch through the left femoral artery. A collateral of the left femoral vein was cannulated for infusion of anaesthetic, and the right femoral vein was cannulated for administration of the compounds. For intraarterial (i.a.) injection of noradrenaline (NA), a PE catheter was introduced into the lower portion of the abdominal aorta via the right external iliac artery. Through such procedure, NA was selectively distributed to the lower urinary tract. A paramedian vertical suprapubic incision extending from the base of the pelvis to the mid-abdominal region was made and the bladder and the prostate were exposed. The bladder was manually emptied with a syringe. […] The distal end of the right or left branch of the nerve was placed on a bipolar platinum electrode. Prostatic urethral pressure was monitored with a Mikro-tip catheter (5F) introduced into the bladder via the external urethral meatus, and withdrawn until the pressure transducer was positioned in the prostatic region of the urethra. A ligature was secured between the neck of the bladder and urethra to isolate the response of the latter and to avoid any interaction with the bladder. Another ligature was put around the Mikro-tip catheter at the external meatus, to secure the catheter itself. The hypogastric nerve stimulation was made with a train of rectangular pulses of 10-15 V, 10-30 Hz, width 5 msec, 8 sec duration.
After a stabilising period following the surgical procedure (30 minutes), in which arterial and prostatic urethral pressure were continuously monitored as basal values, i.a. administration of NA and stimulation of the hypogastric nerve were alternately made at intervals of 10 minutes.
The dose of NA and the parameter of hypogastric nerve stimulation chosen were such as to produce an increase of at least 100% in urethral pressure. The test compounds were administered i.v. in a cumulative manner with intervals of 15-20 min between administrations. Both i.a. injections of NA and stimulations of the hypogastric nerve were repeated 5 minutes after every dosing of test compound with intervals of about 5 minutes between two stimulations. […]

[4] = tested on: urethral contractions (UP) induced by noradrenaline (NA); assay: Urethral contractions induced by noradrenaline injection in anaesthetised dogs, i.v. administration; format: in vivo; details: dog
Procedure: The experiments were performed according to the method of Imagawa J. et al., J Pharmacol. Methods 22, 103-111 (1989), with substantial modifications, as follows: adult male beagle dogs, weighing 8-10 kg, were anaesthetised with pentobarbital sodium (30 mg/kg i.v. and 2 mg/kg/h i.v.), intubated and spontaneously ventilated with room air. In order to monitor systemic blood pressure (BP), a polyethylene (PE) catheter was introduced into the aortic arch through the left femoral artery. A collateral of the left femoral vein was cannulated for infusion of anaesthetic, and the right femoral vein was cannulated for administration of the compounds. For intraarterial (i.a.) injection of noradrenaline (NA), a PE catheter was introduced into the lower portion of the abdominal aorta via the right external iliac artery. Through such procedure, NA was selectively distributed to the lower urinary tract. A paramedian vertical suprapubic incision extending from the base of the pelvis to the mid-abdominal region was made and the bladder and the prostate were exposed. The bladder was manually emptied with a syringe. […] The distal end of the right or left branch of the nerve was placed on a bipolar platinum electrode. Prostatic urethral pressure was monitored with a Mikro-tip cathe[…]) introduced into the bladder via the external urethral meatus, and withdrawn until the pressure transducer was positioned in the prostatic region of the urethra. A ligature was secured between the neck of the bladder and urethra to isolate the response of the latter and to avoid any interaction with the bladder. Another ligature was put around the Mikro-tip catheter at the external meatus, to secure the catheter itself. […] Both i.a. injections of NA and stimulations of the hypogastric nerve were repeated 5 minutes after every dosing of test compound with intervals of about 5 minutes between two stimulations. In order to compare the effects of the administered compound, dose/response curves were constructed by computing, at the peak effect, the percent decrease in diastolic blood pressure and the percent inhibition of the increase in urethral pressure induced by both types of stimulation used.

Ki (α1a adrenergic receptor): 0.066 nM
Ki [2]: 1.45 nM
Compound: Cc1onc(-c2ccccc2)c1C(=O)NCCCN1CCN(c2ccccc2OCC(F)(F)F)CC1 [Example 3, 5-Methyl-3-phenyl-N-{3-[4-[2-(2,2,2-trifluoroethoxy)-phenyl]-1-piperazinyl]-propyl}isoxazole-4-carboxamide]
pKb (α1L adrenoceptor): 8.47
ED50 [1]: 2.4 µg/kg
DBP ED25 [3]: 514.7 µg/kg
ED50 ([4]; Canis lupus familiaris, iv, dose inhibiting by 50% urethral contractions induced by noradrenaline, read-out: UP ID50 NA): 1.3 µg/kg
R1 (DBP/NA) ([4]; ratio DBP ED25 / UP ID50 NA): 396
